Measured values as given in the supplement of paper PMC11061612.

Assays:
Assay in all cases: Bliss excess, mean over the matrix (fraction); higher = more synergy
[1] = system: NCI-H1781 (Lung Adenocarcinoma)
Outline: (§1)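 Bliss excess equals the observed combination effect minus the expected value EA + EB − EA·EB, where EA and EB are the effects of each agent alone. Combination Emax is the second-highest inhibition within the matrix. Inhibition was scaled from CellTiter-Glo 2.0 luminescence, with 0 set by vehicle wells and 1 by blank wells, after 72 hours of two-drug dosing of cells plated in 1536-well plates.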

DSH1 (Bladder Carcinoma) = system: DSH1 (Bladder Carcinoma)
Outline: as §1

[2] = system: MFH-ino (Other Solid Carcinomas)
Outline: as §1

[3] = system: DMS-273 (Small Cell Lung Carcinoma)
Outline: as §1

ES7 (Ewing's Sarcoma) = system: ES7 (Ewing's Sarcoma)
Outline: as §1

NCI-H2369 (Mesothelioma) = system: NCI-H2369 (Mesothelioma)
Outline: as §1

[4] = system: SW780 (Bladder Carcinoma)
Outline: as §1

[5] = system: DOV13 (Ovarian Carcinoma)
Outline: as §1

[6] = system: TE-5 (Esophageal Squamous Cell Carcinoma)
Outline: as §1

[7] = system: MDA-MB-231 (Breast Carcinoma)
Outline: as §1

CAL-78 (Chondrosarcoma) = system: CAL-78 (Chondrosarcoma)
Outline: as §1

[8] = system: JiyoyeP-2003 (Burkitt's Lymphoma)
Outline: as §1

[9] = system: COR-L23 (Non-Small Cell Lung Carcinoma)
Outline: as §1

IGR-1 (Melanoma) = system: IGR-1 (Melanoma)
Outline: as §1

SK-N-FI (Neuroblastoma) = system: SK-N-FI (Neuroblastoma)
Outline: as §1

[10] = system: SW1088 (Low Grade Glioma)
Outline: as §1

[11] = system: NCI-H1793 (Lung Adenocarcinoma)
Outline: as §1

[12] = system: LS-513 (Colorectal Carcinoma)
Outline: as §1

[13] = system: HCC2157 (Breast Carcinoma)
Outline: as §1

[14] = system: MDA-MB-157 (Breast Carcinoma)
Outline: as §1

Compound	Bliss excess [1]	Bliss excess (DSH1 (Bladder Carcinoma))	Bliss excess [2]	Bliss excess [3]	Bliss excess (ES7 (Ewing's Sarcoma))	Bliss excess (NCI-H2369 (Mesothelioma))	Bliss excess [4]	Bliss excess [5]	Bliss excess [6]	Bliss excess [7]	Bliss excess (CAL-78 (Chondrosarcoma))	Bliss excess [8]	Bliss excess [9]	Bliss excess (IGR-1 (Melanoma))	Bliss excess (SK-N-FI (Neuroblastoma))	Bliss excess [10]	Bliss excess [11]	Bliss excess [12]	Bliss excess [13]	Bliss excess [14]
CC(=O)c1c(C)c2cnc(Nc3ccc(N4CCNCC4)cn3)nc2n(C2CCCC2)c1=O [Palbociclib] + Cn1cnc2c(F)c(Nc3ccc(Br)cc3Cl)c(C(=O)NOCCO)cc21 [Selumetinib] (first compound max 10 µM, 7x7, partner max 10 µM)	-0.0532	-0.0834	-0.0237	-0.0393	0.0067	-0.0483	-0.0008	-0.233	-0.0511	0.0613	-0.0463	0.0443	0.0224	0.0661	0.016	-0.0327	-0.012	0.0207	-0.036	-0.0396
CCN(CCO)CCCOc1ccc2c(Nc3cc(CC(=O)Nc4cccc(F)c4)[nH]n3)ncnc2c1 [AZD2811] + C=CCn1c(=O)c2cnc(Nc3ccc(N4CCN(C)CC4)cc3)nc2n1-c1cccc(C(C)(C)O)n1 [AZD1775] (first compound max 1 µM, partner max 1 µM)	0.0795	-0.0013	-0.0399	0.0064	-0.0468	-0.0434	0.0194	-0.0063	-0.076	0.009	0.0636	0.0548	-0.0043	-0.0438	-0.0452	0.0034	-0.0064	-0.0974	-0.0071	0.0291
CN(C)CCCOc1ccc(-c2ccc3ncc4c(c3c2)n(C2CCOCC2)c(=O)n4C)cn1 [AZD0156] + C=CCn1c(=O)c2cnc(Nc3ccc(N4CCN(C)CC4)cc3)nc2n1-c1cccc(C(C)(C)O)n1 [AZD1775] (first compound max 1 µM, partner max 1 µM)	-0.0014	0.0236	-0.0954	-0.0142	-0.0153	-0.0266	-0.0311	-0.0523	-0.0388	-0.0415	-0.0854	-0.0012	0.0047	-0.031	-0.0308	-0.0738	-0.0489	-0.0448	-0.0233	-0.0177
Cc1c2c(nn1C)CSCc1cc(n(C)n1)CSc1cc(c3ccccc3c1)OCCCc1c(C(=O)O)n(C)c3c-2c(Cl)ccc13 [AZD5991] + CC1(C)CCC(CN2CCN(c3ccc(C(=O)NS(=O)(=O)c4ccc(NCC5CCOCC5)c([N+](=O)[O-])c4)c(Oc4cnc5[nH]ccc5c4)c3)CC2)=C(c2ccc(Cl)cc2)C1 [Venetoclax] (first compound max 1 µM, 7x7, partner max 1 µM)	-0.0597	0.0397	-0.0512	-0.0099	0.102	-0.0027	0.0215	0.0007	0.037	0.0126	-0.0118	0.0249	-0.0178	0.2	0.034	-0.0187	-0.0081	-0.0523	0.0305	0.004
CC1(C)CCC(CN2CCN(c3ccc(C(=O)NS(=O)(=O)c4ccc(NCC5CCOCC5)c([N+](=O)[O-])c4)c(Oc4cnc5[nH]ccc5c4)c3)CC2)=C(c2ccc(Cl)cc2)C1 [Venetoclax] + CN(C)CCCOc1ccc(-c2ccc3ncc4c(c3c2)n(C2CCOCC2)c(=O)n4C)cn1 [AZD0156] (first compound max 1 µM, 7x7, partner max 1 µM)	0.0048	-0.0305	-0.0403	0.0156	0.0317	-0.0298	-0.0031	-0.0231	-0.0248	0.0067	-0.0043	-0.0128	-0.0064	0.0116	0	-0.0651	-0.0158	-0.0273	0.0314	-0.0087
Cc1c2c(nn1C)CSCc1cc(n(C)n1)CSc1cc(c3ccccc3c1)OCCCc1c(C(=O)O)n(C)c3c-2c(Cl)ccc13 [AZD5991] + Cc1cc2ncnn2cc1Nc1ncc2c(n1)n(C1CCOCC1)c(=O)n2C [AZD7648] (first compound max 1 µM, 7x7, partner max 10 µM)	-0.105	-0.095	-0.018	-0.0113	-0.028	0.0018	-0.0193	-0.0025	-0.0257	-0.0397	-0.0448	0.0725	-0.0076	-0.0642	-0.0289	-0.0665	-0.0112	0.002	0.0283	-0.0214
CCc1c2c(nc3ccc(O)cc13)-c1cc3c(c(=O)n1C2)COC(=O)[C@]3(O)CC [SN-38] + CN(C)CCCOc1ccc(-c2ccc3ncc4c(c3c2)n(C2CCOCC2)c(=O)n4C)cn1 [AZD0156] (first compound max 0.3 µM, 7x7, partner max 1 µM)	0.0554	-0.0382	-0.0032	0.0377	0.0565	-0.0001	-0.0475	-0.0192	0.0124	0.0937	-0.0547	0.0406	0.014	0.0179	0.0628	0.0324	-0.026	-0.0878	0.142	0.0653
CN(C)CCCOc1ccc(-c2ccc3ncc4c(c3c2)n(C2CCOCC2)c(=O)n4C)cn1 [AZD0156] + C[C@@H]1COCCN1C2=NC(=NC(=C2)C3(CC3)[S@](=N)(=O)C)C4=C5C=CNC5=NC=C4 [AZD6738] (first compound max 1 µM, 7x7, partner max 10 µM)	-0.0229	0.0773	-0.0591	0.0084	0.0225	-0.0253	-0.0372	-0.0395	-0.0609	0.0105	-0.0694	0.0501	0.045	-0.0032	0.0055	-0.0113	-0.0268	0.0068	0.0548	-0.0103
C[C@@H](c1ccc2nccn2c1)n1nnc2ncc(-c3cnn(C)c3)nc21 [Savolitinib] + Cc1c2c(nn1C)CSCc1cc(n(C)n1)CSc1cc(c3ccccc3c1)OCCCc1c(C(=O)O)n(C)c3c-2c(Cl)ccc13 [AZD5991] (first compound max 1 µM, 7x7, partner max 1 µM)	-0.0293	0.0335	-0.0572	-0.0356	-0.017	-0.0527	-0.0487	-0.0518	-0.027	-0.0186	-0.117	-0.0034	-0.048	-0.0112	-0.0077	0.021	-0.0351	-0.0219	-0.0289	-0.0501
